Results: US7282504B2, “Kinase inhibitors” (Amgen Inc., priority 2000, dated 2007)

How the values were obtained:
Format in all cases: biochemical
Zap-1 = biological target: T1, Zap-1 (Homo sapiens, UniProt P43403); test: Kinase inhibition, 33P transfer to plate-bound substrate: Zap-1
T1 construct: Kinases are expressed as either kinase domains or full-length constructs; made in house
T1 sequence (P43403 1-619): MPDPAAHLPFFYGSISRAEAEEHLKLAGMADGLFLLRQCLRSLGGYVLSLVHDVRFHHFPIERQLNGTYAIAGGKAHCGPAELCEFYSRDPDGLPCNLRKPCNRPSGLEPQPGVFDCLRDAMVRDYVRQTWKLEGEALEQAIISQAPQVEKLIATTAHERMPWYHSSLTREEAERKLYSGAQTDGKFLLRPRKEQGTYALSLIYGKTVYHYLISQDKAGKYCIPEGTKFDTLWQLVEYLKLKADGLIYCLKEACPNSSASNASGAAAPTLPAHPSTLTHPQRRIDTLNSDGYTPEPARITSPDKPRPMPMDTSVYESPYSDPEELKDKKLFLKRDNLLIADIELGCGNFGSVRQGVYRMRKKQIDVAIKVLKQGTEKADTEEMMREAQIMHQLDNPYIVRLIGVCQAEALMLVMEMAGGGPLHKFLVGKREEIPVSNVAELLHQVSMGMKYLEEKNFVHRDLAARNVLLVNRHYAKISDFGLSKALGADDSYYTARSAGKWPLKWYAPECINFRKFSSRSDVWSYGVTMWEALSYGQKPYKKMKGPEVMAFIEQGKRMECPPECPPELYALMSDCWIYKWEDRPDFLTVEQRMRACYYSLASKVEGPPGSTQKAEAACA
From the text: (§1) The inhibitor compounds described herein are screened in the following manner. Kinases suitable for use in the following protocol to determine kinase activity of the compounds described herein include, but are not limited to: Lck, Lyn, Src, Fyn, Syk, Zap-70, Itk, Tec, Btk, EGFR, ErbB2, Kdr, Flt-1, Flt-3, Tek, c-Met, InsR, and AKT.
(§2) Kinases are expressed as either kinase domains or full-length constructs fused to glutathione S-transferase (GST) or polyHistidine tagged fusion proteins in either E. coli or Baculovirus-High Five expression systems. They are purified to near homogeneity by affinity chromatography essentially as previously described (Lehr et al., 1996; Gish et al., 1995). In some instances, kinases are co-expressed or mixed with purified or partially purified regulatory polypeptides prior to measurement of activity.
(§3) Kinase activity and inhibition are measured essentially by established protocols (Braunwalder et al., 1996). Briefly, The transfer of ^33PO4 from ATP to the synthetic substrates poly(Glu, Tyr) 4:1 or poly(Arg, Ser) 3:1 attached to the bioactive surface of microtiter plates serves as the basis to evaluate enzyme activity. After an incubation period, the amount of phosphate transferred is measured by first washing the plate with 0.5% phosphoric acid, adding liquid scintillant, and then counting in a liquid scintillation detector. The IC50 is determined by the concentration of compound that causes a 50% reduction in the amount of ^33P incorporated onto the substrate bound to the plate.

EGFR-1 = biological target: T2, EGFR-1 (Homo sapiens, UniProt P00533); test: Kinase inhibition, 33P transfer to plate-bound substrate: EGFR-1
T2 construct: Kinases are expressed as either kinase domains or full-length constructs; made in house
From the text: as §1, §2, §3

Itk-1 = biological target: T3, Itk-1 (Homo sapiens, UniProt Q08881); test: Kinase inhibition, 33P transfer to plate-bound substrate: Itk-1
T3 construct: Kinases are expressed as either kinase domains or full-length constructs; made in house
T3 sequence (Q08881 1-620): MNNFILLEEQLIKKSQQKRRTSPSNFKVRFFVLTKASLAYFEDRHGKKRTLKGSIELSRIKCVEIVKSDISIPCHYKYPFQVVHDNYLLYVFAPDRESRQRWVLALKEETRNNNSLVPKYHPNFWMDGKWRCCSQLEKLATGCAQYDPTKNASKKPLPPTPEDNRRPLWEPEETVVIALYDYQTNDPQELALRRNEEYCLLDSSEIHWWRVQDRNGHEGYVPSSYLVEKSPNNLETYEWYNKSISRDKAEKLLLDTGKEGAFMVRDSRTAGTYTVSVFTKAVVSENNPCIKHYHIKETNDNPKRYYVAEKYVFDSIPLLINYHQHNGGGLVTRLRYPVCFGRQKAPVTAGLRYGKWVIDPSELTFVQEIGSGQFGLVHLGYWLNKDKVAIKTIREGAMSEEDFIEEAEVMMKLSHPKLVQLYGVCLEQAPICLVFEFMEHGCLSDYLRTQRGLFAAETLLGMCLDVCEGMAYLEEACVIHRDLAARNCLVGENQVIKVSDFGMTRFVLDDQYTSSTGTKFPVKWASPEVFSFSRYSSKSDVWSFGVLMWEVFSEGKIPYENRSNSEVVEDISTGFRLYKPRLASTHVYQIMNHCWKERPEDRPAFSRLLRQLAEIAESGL
From the text: as §1, §2, §3

KDR-1 = biological target: T4, KDR-1 (Homo sapiens, UniProt P35968); test: Kinase inhibition, 33P transfer to plate-bound substrate: KDR-1
T4 construct: Kinases are expressed as either kinase domains or full-length constructs; made in house
From the text: as §1, §2, §3

ErbB2-1 = biological target: T5, ErbB2-1 (Homo sapiens, UniProt P04626); test: Kinase inhibition, 33P transfer to plate-bound substrate: ErbB2-1
T5 construct: Kinases are expressed as either kinase domains or full-length constructs; made in house
From the text: as §1, §2, §3

Met-1 = biological target: T6, Met-1 (Homo sapiens, UniProt P08581); test: Kinase inhibition, 33P transfer to plate-bound substrate: Met-1
T6 construct: Kinases are expressed as either kinase domains or full-length constructs; made in house
From the text: as §1, §2, §3

PDGFRB = biological target: T7, PDGFRB (Homo sapiens, UniProt P09619); test: Kinase inhibition, 33P transfer to plate-bound substrate: PDGFRB
T7 construct: Kinases are expressed as either kinase domains or full-length constructs; made in house
From the text: as §1, §2, §3

IGFR-1 = biological target: T8, IGFR-1 (Homo sapiens, UniProt P08069); test: Kinase inhibition, 33P transfer to plate-bound substrate: IGFR-1
T8 construct: Kinases are expressed as either kinase domains or full-length constructs; made in house
From the text: as §1, §2, §3

Lck-1 = biological target: T9, Lck-1 (Homo sapiens, UniProt P06239); test: Kinase inhibition, 33P transfer to plate-bound substrate: Lck-1
T9 construct: Kinases are expressed as either kinase domains or full-length constructs; made in house
From the text: as §1, §2, §3

Akt3-1 = biological target: T10, Akt3-1 (Homo sapiens, UniProt Q9Y243); test: Kinase inhibition, 33P transfer to plate-bound substrate: Akt3-1
T10 construct: Kinases are expressed as either kinase domains or full-length constructs; made in house
From the text: as §1, §2, §3

Lck-2 = biological target: T11, Lck-2 (Homo sapiens, UniProt P06239); test: Kinase inhibition, 33P transfer to plate-bound substrate: Lck-2
T11 construct: Kinases are expressed as either kinase domains or full-length constructs; made in house
From the text: as §1, §2, §3

Tek-1 = biological target: T12, Tek-1 (Homo sapiens, UniProt Q02763); test: Kinase inhibition, 33P transfer to plate-bound substrate: Tek-1
T12 construct: Kinases are expressed as either kinase domains or full-length constructs; made in house
From the text: as §1, §2, §3

Ret-1 = biological target: T13, Ret-1 (Homo sapiens, UniProt P07949); test: Kinase inhibition, 33P transfer to plate-bound substrate: Ret-1
T13 construct: Kinases are expressed as either kinase domains or full-length constructs; made in house
From the text: as §1, §2, §3

FGFR1-1 = biological target: T14, FGFR1-1 (Homo sapiens, UniProt P11362); test: Kinase inhibition, 33P transfer to plate-bound substrate: FGFR1-1
T14 construct: Kinases are expressed as either kinase domains or full-length constructs; made in house
From the text: as §1, §2, §3

InsR-1 = biological target: T15, InsR-1 (Homo sapiens, UniProt P06213); test: Kinase inhibition, 33P transfer to plate-bound substrate: InsR-1
T15 construct: Kinases are expressed as either kinase domains or full-length constructs; made in house
From the text: as §1, §2, §3

Flt1-1 = biological target: T16, Flt1-1 (Homo sapiens, UniProt P17948); test: Kinase inhibition, 33P transfer to plate-bound substrate: Flt1-1
T16 construct: Kinases are expressed as either kinase domains or full-length constructs; made in house
From the text: as §1, §2, §3

T5 sequence (P04626 23-1255): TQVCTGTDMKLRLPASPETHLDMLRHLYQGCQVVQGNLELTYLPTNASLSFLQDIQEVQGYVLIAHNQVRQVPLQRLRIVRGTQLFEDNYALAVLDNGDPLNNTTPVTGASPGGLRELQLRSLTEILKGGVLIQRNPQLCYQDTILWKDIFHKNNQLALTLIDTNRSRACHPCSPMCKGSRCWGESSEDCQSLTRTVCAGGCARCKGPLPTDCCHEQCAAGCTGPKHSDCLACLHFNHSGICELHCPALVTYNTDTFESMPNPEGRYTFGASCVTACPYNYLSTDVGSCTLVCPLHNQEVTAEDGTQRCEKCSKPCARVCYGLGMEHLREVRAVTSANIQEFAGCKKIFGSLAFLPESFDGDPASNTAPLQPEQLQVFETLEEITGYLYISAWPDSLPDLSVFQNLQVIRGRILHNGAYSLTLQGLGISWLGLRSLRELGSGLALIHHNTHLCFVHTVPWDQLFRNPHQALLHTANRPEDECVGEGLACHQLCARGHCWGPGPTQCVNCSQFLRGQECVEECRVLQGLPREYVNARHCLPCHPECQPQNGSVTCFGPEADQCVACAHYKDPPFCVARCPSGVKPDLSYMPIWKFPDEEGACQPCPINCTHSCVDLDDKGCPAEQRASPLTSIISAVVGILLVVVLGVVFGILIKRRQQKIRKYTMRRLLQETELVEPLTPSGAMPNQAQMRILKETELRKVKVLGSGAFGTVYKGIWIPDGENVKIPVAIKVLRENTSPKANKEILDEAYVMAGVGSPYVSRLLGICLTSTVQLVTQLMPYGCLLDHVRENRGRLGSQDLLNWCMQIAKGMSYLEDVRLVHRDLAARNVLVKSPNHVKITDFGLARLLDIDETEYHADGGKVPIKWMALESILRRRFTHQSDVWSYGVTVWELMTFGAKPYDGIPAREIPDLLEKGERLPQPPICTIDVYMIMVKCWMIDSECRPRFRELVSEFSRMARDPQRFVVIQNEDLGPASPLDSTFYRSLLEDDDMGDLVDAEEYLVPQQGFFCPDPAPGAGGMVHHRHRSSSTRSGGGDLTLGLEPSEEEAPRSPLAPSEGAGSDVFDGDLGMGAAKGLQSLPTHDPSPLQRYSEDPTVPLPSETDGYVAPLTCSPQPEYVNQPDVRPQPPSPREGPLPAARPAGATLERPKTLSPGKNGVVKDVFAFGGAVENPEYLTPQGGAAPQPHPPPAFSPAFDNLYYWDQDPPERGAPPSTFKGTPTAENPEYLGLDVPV
T12 sequence (Q02763 23-1124): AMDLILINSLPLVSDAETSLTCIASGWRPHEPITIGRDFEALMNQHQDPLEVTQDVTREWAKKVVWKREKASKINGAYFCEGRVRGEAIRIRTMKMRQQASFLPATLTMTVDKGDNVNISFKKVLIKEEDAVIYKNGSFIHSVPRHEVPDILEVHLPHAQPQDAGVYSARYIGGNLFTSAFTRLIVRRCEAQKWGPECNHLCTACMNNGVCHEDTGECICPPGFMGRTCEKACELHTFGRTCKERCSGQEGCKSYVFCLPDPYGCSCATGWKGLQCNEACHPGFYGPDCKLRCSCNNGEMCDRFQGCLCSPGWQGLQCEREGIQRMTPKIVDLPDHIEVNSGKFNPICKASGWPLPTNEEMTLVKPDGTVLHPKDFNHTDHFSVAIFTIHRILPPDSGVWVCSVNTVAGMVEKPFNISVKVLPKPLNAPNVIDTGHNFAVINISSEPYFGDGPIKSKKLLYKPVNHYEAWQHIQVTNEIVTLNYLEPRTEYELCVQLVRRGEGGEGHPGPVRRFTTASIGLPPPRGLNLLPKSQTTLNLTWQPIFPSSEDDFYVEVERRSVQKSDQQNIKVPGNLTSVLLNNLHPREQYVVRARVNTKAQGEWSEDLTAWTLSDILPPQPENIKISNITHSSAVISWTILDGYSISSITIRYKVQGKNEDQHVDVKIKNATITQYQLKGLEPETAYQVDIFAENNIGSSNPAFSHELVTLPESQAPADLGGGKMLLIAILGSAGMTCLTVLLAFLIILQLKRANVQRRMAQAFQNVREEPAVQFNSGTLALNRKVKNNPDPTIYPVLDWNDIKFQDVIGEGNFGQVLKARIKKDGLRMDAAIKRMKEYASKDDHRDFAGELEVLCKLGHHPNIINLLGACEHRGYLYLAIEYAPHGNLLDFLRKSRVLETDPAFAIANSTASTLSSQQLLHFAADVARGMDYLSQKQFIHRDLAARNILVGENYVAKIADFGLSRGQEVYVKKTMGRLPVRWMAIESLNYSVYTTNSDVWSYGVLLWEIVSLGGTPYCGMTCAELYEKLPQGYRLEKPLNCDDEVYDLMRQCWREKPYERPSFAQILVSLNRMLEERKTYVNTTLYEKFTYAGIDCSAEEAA
T4 sequence (P35968 20-1356): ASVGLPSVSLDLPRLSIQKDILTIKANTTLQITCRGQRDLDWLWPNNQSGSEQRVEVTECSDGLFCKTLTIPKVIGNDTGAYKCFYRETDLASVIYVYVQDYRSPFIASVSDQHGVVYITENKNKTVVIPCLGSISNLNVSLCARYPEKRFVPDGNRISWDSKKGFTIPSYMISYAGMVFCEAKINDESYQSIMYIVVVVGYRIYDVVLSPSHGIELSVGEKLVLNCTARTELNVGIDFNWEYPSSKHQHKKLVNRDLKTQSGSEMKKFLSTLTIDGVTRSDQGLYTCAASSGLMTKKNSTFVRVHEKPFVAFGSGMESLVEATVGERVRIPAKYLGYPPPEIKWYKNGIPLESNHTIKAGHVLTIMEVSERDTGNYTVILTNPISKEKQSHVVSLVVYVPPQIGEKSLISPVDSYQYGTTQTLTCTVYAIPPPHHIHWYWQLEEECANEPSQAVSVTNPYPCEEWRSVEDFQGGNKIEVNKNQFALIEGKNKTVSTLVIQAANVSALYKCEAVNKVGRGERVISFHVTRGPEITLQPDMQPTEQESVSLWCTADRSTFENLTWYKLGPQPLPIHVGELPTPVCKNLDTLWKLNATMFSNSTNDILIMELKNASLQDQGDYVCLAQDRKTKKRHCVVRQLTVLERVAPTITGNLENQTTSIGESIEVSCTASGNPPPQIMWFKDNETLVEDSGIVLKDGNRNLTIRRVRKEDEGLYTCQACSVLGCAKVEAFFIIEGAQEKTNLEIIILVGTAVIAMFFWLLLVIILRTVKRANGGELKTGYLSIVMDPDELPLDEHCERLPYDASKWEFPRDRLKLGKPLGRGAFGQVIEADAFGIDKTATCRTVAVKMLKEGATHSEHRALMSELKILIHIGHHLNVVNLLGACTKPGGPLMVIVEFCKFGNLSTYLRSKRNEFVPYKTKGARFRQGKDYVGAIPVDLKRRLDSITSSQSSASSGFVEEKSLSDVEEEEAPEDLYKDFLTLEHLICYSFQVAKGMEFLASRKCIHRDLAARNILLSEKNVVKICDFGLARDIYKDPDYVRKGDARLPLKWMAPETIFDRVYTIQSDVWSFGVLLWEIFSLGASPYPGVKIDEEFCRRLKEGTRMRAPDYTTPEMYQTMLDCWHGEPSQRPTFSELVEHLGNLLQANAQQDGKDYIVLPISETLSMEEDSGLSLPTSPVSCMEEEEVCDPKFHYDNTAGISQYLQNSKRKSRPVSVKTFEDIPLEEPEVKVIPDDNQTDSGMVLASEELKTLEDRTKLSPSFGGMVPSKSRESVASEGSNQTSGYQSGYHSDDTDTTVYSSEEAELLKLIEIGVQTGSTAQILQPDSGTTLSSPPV
T8 sequence (P08069 31-1367): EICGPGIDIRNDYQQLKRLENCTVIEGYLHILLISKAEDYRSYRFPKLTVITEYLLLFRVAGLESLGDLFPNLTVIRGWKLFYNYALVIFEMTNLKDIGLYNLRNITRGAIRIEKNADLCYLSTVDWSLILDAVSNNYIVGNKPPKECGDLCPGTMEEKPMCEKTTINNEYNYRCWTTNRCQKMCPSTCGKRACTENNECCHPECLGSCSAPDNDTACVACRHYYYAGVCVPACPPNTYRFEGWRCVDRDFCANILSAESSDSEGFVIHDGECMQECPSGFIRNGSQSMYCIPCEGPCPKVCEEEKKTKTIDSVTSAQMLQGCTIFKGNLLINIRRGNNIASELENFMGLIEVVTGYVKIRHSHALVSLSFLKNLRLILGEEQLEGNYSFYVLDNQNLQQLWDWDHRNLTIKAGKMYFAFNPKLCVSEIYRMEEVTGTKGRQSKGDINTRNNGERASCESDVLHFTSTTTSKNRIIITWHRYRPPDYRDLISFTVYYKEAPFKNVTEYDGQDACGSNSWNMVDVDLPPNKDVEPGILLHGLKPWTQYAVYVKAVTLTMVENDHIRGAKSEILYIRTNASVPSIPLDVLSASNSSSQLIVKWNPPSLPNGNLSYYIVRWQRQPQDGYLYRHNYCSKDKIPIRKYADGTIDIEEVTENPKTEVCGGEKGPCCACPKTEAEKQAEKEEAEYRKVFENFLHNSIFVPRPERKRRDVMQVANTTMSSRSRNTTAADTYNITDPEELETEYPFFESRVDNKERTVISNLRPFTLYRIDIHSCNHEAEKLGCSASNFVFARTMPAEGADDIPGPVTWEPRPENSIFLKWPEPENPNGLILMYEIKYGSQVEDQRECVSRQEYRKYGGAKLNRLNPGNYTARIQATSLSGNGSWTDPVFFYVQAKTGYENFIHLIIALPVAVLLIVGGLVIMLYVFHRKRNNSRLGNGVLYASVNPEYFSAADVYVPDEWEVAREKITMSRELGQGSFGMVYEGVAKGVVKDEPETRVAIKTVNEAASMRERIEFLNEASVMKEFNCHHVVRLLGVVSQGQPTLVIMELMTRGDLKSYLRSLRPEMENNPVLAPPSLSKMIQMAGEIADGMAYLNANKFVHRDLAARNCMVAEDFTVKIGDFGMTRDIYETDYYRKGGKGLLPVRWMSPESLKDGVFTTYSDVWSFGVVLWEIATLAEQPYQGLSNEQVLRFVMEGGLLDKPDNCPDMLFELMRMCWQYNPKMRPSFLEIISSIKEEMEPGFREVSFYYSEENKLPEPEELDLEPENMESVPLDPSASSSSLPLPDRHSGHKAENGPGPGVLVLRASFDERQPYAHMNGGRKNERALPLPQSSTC

Structure (SMILES)	IC50 (Zap-1) [µM]	IC50 (EGFR-1) [µM]	IC50 (Itk-1) [µM]	IC50 (KDR-1) [µM]	IC50 (ErbB2-1) [µM]	IC50 (Met-1) [µM]	IC50 (PDGFRB) [µM]	IC50 (IGFR-1) [µM]	IC50 (Lck-1) [µM]	IC50 (Akt3-1) [µM]	IC50 (Lck-2) [µM]	IC50 (Tek-1) [µM]	IC50 (Ret-1) [µM]	IC50 (FGFR1-1) [µM]	IC50 (InsR-1) [µM]	IC50 (Flt1-1) [µM]
COc1cc(Nc2nccc(-n3c(N)nc4ccccc43)n2)cc(OC)c1OC [Compound 11]	≥ 10	≥ 10	5 to 10	5 to 10		5 to 10			5 to 10	5 to 10	1.5 to 5	≥ 10				
COc1cc(Nc2ccnc(Nc3ccc4c(cnn4Cc4ccccc4)c3)n2)cc(OC)c1OC [Compound 37]	≥ 10	1.5 to 5	1.5 to 5	1.5 to 5	< 1.5	1.5 to 5	< 1.5	< 1.5	< 1.5	≥ 10	< 1.5					
COc1cc(Nc2ccnc(Nc3ccc(OCc4ccccc4)cc3)n2)cc(OC)c1OC [Compound 58]		≥ 10	5 to 10	5 to 10		5 to 10			5 to 10		< 1.5					
Cc1cccc(Nc2nccc(Nc3cccc(Br)c3)n2)c1 [Compound 54]		≥ 10	≥ 10	5 to 10	≥ 10	≥ 10	5 to 10	< 1.5	≥ 10	≥ 10	≥ 10					
Clc1cccc(Nc2ccnc(Nc3cccc(Cl)c3)n2)c1 [Compound 57]	≥ 10	≥ 10	5 to 10	< 1.5	≥ 10	1.5 to 5	5 to 10	< 1.5	≥ 10	≥ 10	< 1.5		< 1.5	5 to 10	5 to 10	5 to 10

More lines, now with the values ahead:

IC50 (Zap-1) [µM]	IC50 (EGFR-1) [µM]	IC50 (Itk-1) [µM]	IC50 (KDR-1) [µM]	IC50 (ErbB2-1) [µM]	IC50 (Met-1) [µM]	IC50 (PDGFRB) [µM]	IC50 (IGFR-1) [µM]	IC50 (Lck-1) [µM]	IC50 (Akt3-1) [µM]	IC50 (Lck-2) [µM]	IC50 (Tek-1) [µM]	IC50 (Ret-1) [µM]	IC50 (FGFR1-1) [µM]	IC50 (InsR-1) [µM]	IC50 (Flt1-1) [µM]	Structure (SMILES)
5 to 10	≥ 10	≥ 10	≥ 10	≥ 10	≥ 10	≥ 10	≥ 10	≥ 10	≥ 10	≥ 10						COc1cc(Nc2nccc(-n3ccc(-c4ccc(Cl)cc4)n3)n2)cc(OC)c1OC [Compound 33]
	≥ 10	1.5 to 5	1.5 to 5		5 to 10	1.5 to 5	< 1.5	≥ 10	≥ 10	< 1.5						Cc1cccc(Nc2ccnc(Nc3cccc(Br)c3)n2)c1 [Compound 60]
≥ 10	≥ 10	≥ 10	≥ 10	≥ 10	≥ 10	≥ 10	≥ 10	≥ 10	≥ 10	≥ 10	≥ 10					COc1cc(Nc2nccc(-n3c(=O)oc4ccccc43)n2)cc(OC)c1OC [Compound 25]
5 to 10	< 1.5	< 1.5	< 1.5	< 1.5	1.5 to 5	< 1.5	< 1.5	< 1.5	≥ 10	< 1.5						COc1cc(Nc2nccc(Nc3ccc4c(cnn4Cc4ccccc4)c3)n2)cc(OC)c1OC [Compound 36]
	5 to 10	5 to 10	5 to 10		5 to 10			5 to 10		< 1.5						COc1cc(Nc2ccnc(Nc3ccc(Oc4ccccc4)cc3)n2)cc(OC)c1OC [Compound 59]
≥ 10	≥ 10		5 to 10		≥ 10			≥ 10	≥ 10	≥ 10	≥ 10					COc1cc(Nc2ccnc(-n3ccc4ccccc43)n2)cc(OC)c1OC [Compound 32]
5 to 10	5 to 10	≥ 10	≥ 10	≥ 10	≥ 10	≥ 10	≥ 10	≥ 10	≥ 10	≥ 10						COc1ccc(-c2ccn(-c3ccnc(Nc4cc(OC)c(OC)c(OC)c4)n3)n2)cc1 [Compound 34]
